Measurements from patent US9340577B2, “HLA binding motifs and peptides and their uses” (priority 1992, dated 2016).
pIC50: −log10 of the molar value. Like-named read-outs stand apart in the source and are kept apart here. No end group written: not given here.

Experiments:
Assay in all cases: biochemical
DRB1*0901 = DRB1*0901 (Homo sapiens, UniProt P01903+P01911, A100R/A103E/D57H/D86V/F55Y/F60I/F76Y/I96F/K127E/L162R/M171V/P40D/Q125H/Q99R/R33Q/R42F/S133A/S66N/T210M/V115G/W38K/Y107V/Y59G/Y89S); type: binding
DRB1*1501 = DRB1*1501 (Homo sapiens, UniProt P01903+P01911); type: binding
DR7 (DRB1*0701) = DR7 (DRB1*0701) (Homo sapiens, UniProt P01903+P01911, A100R/A102G/A103Q/D57E/D86V/E43K/F76Y/K127E/L162R/M171V/P40G/Q125H/Q99D/R33Q/R42Y/R54Q/S133A/S66F/T210M/V115G/Y107V/Y59L/Y89S); type: binding
DRB4*0101 = DRB4*0101 (Homo sapiens, UniProt P01903+P13762, G164S); type: binding
DRB1*1302 = DRB1*1302 (Homo sapiens, UniProt P01903+P01911, A100E/A169T/K41T/L162R/M171V/P40S/Q125H/Q178H/Q39Y/Q99D/R42S/S66N/T262R/V115G/W38E/Y61H); type: binding
Sequence of DRB1*1302 (P01903 26-254 limits assumed, other chains not shown): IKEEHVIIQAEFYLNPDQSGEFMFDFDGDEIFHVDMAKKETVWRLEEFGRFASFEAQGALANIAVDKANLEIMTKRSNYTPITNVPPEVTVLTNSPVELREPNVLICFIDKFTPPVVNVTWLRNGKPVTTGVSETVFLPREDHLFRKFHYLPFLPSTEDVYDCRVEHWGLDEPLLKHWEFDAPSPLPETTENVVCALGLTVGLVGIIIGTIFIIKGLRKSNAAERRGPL

DRB1*0301 = DRB1*0301 (Homo sapiens, UniProt P01903+P01911, A100K/A102G/A103R/A169T/F55Y/I96L/K41T/L162R/M171V/P40S/Q125H/Q178H/Q39Y/R42S/S66N/T106N/T262R/W38E/Y61H); type: binding
Sequence of DRB1*0301 (P01903 26-254 limits assumed, other chains not shown): as above

DRB1*1101 = DRB1*1101 (Homo sapiens, UniProt P01903+P01911, A100R/A169T/A87E/I96F/K41T/L162R/M171V/P40S/Q125H/Q178H/Q39Y/Q99D/R42S/S66Y/T262R/V115G/W38E)
Sequence of DRB1*1101 (P01903 26-254 limits assumed, other chains not shown): as above

DRB1*1201 = DRB1*1201 (Homo sapiens, UniProt P01903+P01911, A100R/A169T/D57E/D86V/F55L/H45Y/K41T/L162R/M171V/P40S/Q125H/Q178H/Q39Y/Q99D/R42G/S66L/T262R/V114A/V67L/W38E/Y59H/Y61H/Y89S); type: binding
DR4w4 (DRB1*0401) = DR4w4 (DRB1*0401) (Homo sapiens, UniProt P01903+P01911, A100K/A169T/F76Y/I96L/K127E/L162R/M171V/N62H/P40V/Q125Y/R42H/S133A/S149N/S66Y/V115G/V209L/W38E); type: binding
DRB1*0802 = DRB1*0802 (Homo sapiens, UniProt P01903+P01911, A100R/A103L/A169T/F76Y/H45Y/I96F/K41T/L162R/M171V/P40S/Q125H/Q178H/Q39Y/Q99D/R218S/R42G/S66Y/V115G/W38E); type: binding
DR1 (DRB1*0101) = DR1 (DRB1*0101) (Homo sapiens, UniProt P01903+P01911, A100R/D57E/F55L/F60I/F76Y/I96L/L162R/M171V/P40L/Q125E/R42F/V115G/Y59C); type: binding
DRB5*0101 = DRB5*0101 (Homo sapiens, UniProt P01903+Q30154)
DRB1*0405 = DRB1*0405 (Homo sapiens, UniProt P01903+P01911, A100R/A169T/D86S/F76Y/I96L/K127E/L162R/M171V/N62H/P40V/Q125Y/R42H/S133A/S149N/S66Y/V115G/V209L/W38E); type: binding

Sequence | pIC50 (DRB1*0901) | pIC50 (DRB1*1501) | pIC50 (DR7 (DRB1*0701)) | pIC50 (DRB4*0101) | pIC50 (DRB1*1302) | pIC50 (DRB1*0301) | pIC50 (DRB1*1101; Binding affinity DRB1 *1101) | pIC50 (DRB1*1201) | pIC50 (DR4w4 (DRB1*0401)) | pIC50 (DRB1*0802) | pIC50 (DR1 (DRB1*0101)) | pIC50 (DRB5*0101; Binding affinity DRB5 *0101) | pIC50 (DRB1*0405) | pIC50 (DRB5*0101) | pIC50 (DRB1*1101)
KSLFGMSLMKFLQGS [Peptide 89.0020] | 6.51 | 5.68 | 7.68 | 6.35 | 5.33 | < 4.70 | 6.27 | 6.03 | 6.24 |  |  |  |  |  | 
LKLFLKGVPKKNCIL [Peptide 89.0054] | 5.70 | 5.47 |  | 6.21 | 5.47 | 5.00 |  | 5.76 | 5.54 | 6.47 | 6.70 |  |  |  | 
LKSFLKGTPKKNCLV [Peptide 89.0035] | 5.57 | 5.29 |  | 5.32 | 6.37 | < 4.70 |  | 5.49 | 6.49 | 6.68 | 7.52 |  |  |  | 
LKVLIQPYSIYAHLQ [Peptide 89.0098] | 4.89 | 7.10 | 7.59 |  | 6.17 | 6.72 | 6.17 | 6.63 | 6.28 | 5.32 |  | 6.00 | 5.65 |  | 
MNYVVWDSIYYITET [Peptide 90.0214] | 6.05 | 5.51 | 7.26 |  | 7.77 | 6.82 | 5.79 | 5.94 |  | < 4.70 | 5.58 | 4.74 | 6.34 |  | 
PHAFPFDKNGNPVYE [Peptide 90.0106] |  | 5.56 | 5.15 |  | 5.86 | 6.03 | < 4.70 | 6.17 |  | < 4.70 | 6.29 | < 4.70 | 5.14 |  | 
QQTVCREGVKRRLIL [Peptide 90.0129] | 5.41 | < 4.70 | < 4.70 | 7.96 | < 4.70 | 6.15 | 5.99 | 4.90 | 7.09 | 5.43 | 5.23 |  |  | < 4.70 | 
RLNVCQDKILTHYEN [Peptide 90.0160] | 7.30 | 5.42 | 5.10 | 9.21 | 7.02 | 6.51 | 6.43 | 6.59 | 8.46 |  | 8.57 | 5.79 |  |  | 
RLTVAKGLSTLLHVP [Peptide 89.0028] | 6.40 |  | 6.74 | 6.39 | 6.17 | 4.84 | 6.63 | 6.56 | 7.28 | 6.30 | 7.34 |  |  |  | 
RYRFQKYKTLFVDVT [Peptide 90.0019] | 6.65 | 6.23 | 7.37 | 5.39 | 5.66 | 5.25 | 6.14 | 5.35 | 6.21 | 6.39 | 7.13 |  |  |  | 
WKAVRHENVLYYKAR [Peptide 90.0230] |  |  | 6.18 | 6.72 | 6.58 | 7.12 |  | 6.38 | 6.14 | 6.21 | 6.79 |  |  | 6.12 | 5.67
